{
  "source": "patent US10766873B2",
  "about": "“Zuclopenthixol hydrochloride derivatives and Ebselen derivatives as ErbB2 inhibitors” (Centre National de la Recherche Scientifique (CNRS), priority 2016, dated 2020)",
  "key": {"[1]": {"system": "WT ErbB2-transfected cells", "assay": "MTT cell proliferation, WT ErbB2-transfected HBMEC", "type": "cell-based", "details": "day 3", "protocol": "The WT, V777L or V842I ErbB2-transfected cells were treated with 5 or 10 μM of ZU and cell proliferation was determined each day during 3 days using an MTT assay. Non transfected cells were included as a negative control.\nThe WT, V777L or V842I ErbB2-transfected cells were treated with 5 or 10 μM of EB1 and cell proliferation was determined each day during 3 days using an MTT assay. Non transfected cells were included as a negative control."}, "[2]": {"target": "peptide encoding the juxtamembrane region of ERBB2 (Homo sapiens, UniProt P04626)", "assay": "Surface Plasmon Resonance, Biacore T200", "type": "binding", "description": "We analyzed the ability of ZU to directly bind to the juxtamembrane domain of ErbB2 using Surface Plasmon Resonance assays on a Biacore T200. For that, we compared the affinity of the compounds for a peptide containing the Ezrin binding motif […] of ErbB2 immobilized on sensorchips, which was reflected by the amplitude of the SPR response.\nCompound ZU and EB1 were validated for their interaction with peptide encoding the juxtamembrane region of ERBB2 using a Biacore T200 (IECB, Bordeaux). Biotinylated peptide encoding the juxtamembrane region of ERBB2 (biotin-[…]) has been immobilized on Streptavidin-coated sensor chips (Series S sensor chip SA, GE Healthcare). Compound ZU in PBS, 0.02% tween20 buffer was used as analyte, and the Ezrin FERM domain has been used as a positive control."}, "BT474": {"system": "BT474", "assay": "MTT cell proliferation, BT474", "type": "cell-based, human", "protocol": "We then analyzed the ability of ZU and EB1 and their derivatives to decrease the ErbB2-dependent cell proliferation.\nSKBR3, BT474, MCF-7, MDA-MB-231 and HBMEC cells were treated with the compounds as indicated, and cell proliferation was determined each day during 3 days using an MTT assay. Non treated cells were included as a negative control.\nA solution of ZU in cis conformation was mixed to a solution of ZU in trans conformation (1:1) to obtain ZU in a 50/50 cis/trans conformation and their respective effects on ErbB2 activation and ErbB2-dependent cell proliferation were analyzed as previously by dot blot analysis using an anti-phosphotyrosine antibody (clone 4G10) and by MTT assays in the ErbB2-overexpressing breast cancer cell line SKBR3, BT474, or HBMEC as a control."}},
  "data": [
    {"smiles": "O=C1c2ccccc2[Se](=O)N1c1ccccc1", "note": "(stereo not drawn) [EB1, Ebselen oxide]", "values": [
      {"measurement": "decrease of the proliferation of WT transfected HBMEC", "setting": "[1]; 5 μM", "result": 60, "unit": "%"},
      {"measurement": "decrease of the proliferation of WT transfected HBMEC", "setting": "[1]; 10 μM", "result": 95, "unit": "%"},
      {"measurement": "binding to immobilized ErbB2 juxtamembrane peptide (SPR, in words)", "setting": "[2]", "result": "bound to the immobilized peptide"},
      {"measurement": "IC50", "setting": "BT474; Homo sapiens, BT-474", "result": 5.5, "unit": "µM"},
      {"measurement": "EC50", "setting": "BT474; Homo sapiens, BT-474, 72 h, day 3, read-out: Cell proliferation at d 3 BT474 EC50", "result": 5.5, "unit": "µM"},
      {"measurement": "Cell proliferation at d 3 BT474 Max inhibition, %", "setting": "BT474; day 3", "result": 100, "unit": "%"}
    ]}
  ]
}
